Measurements published in patent publication US11072591B2, “Tetrazole compounds and their use in the treatment of tuberculosis” (GLAXOSMITHKLINE INTELLECTUAL PROPERTY DEVELOPMENT LIMITED, priority 2017, dated 2021).
≈ marks a conversion by molar mass, not a printed value.

test system: M. tuberculosis H37Rv; assay: Mycobacterium tuberculosis H37Rv Inhibition Assay (Whole Cell Assay), MIC; format: cell-based; conditions: 144 h, M. tuberculosis H37Rv, Middlebrook 7H9 + ADC, 37° C. six days, resazurin readout, read-out: MIC_H37Rv

Compound | MIC [µM]
COc1cc(-c2nnn(CC3CCC(F)(F)CC3)n2)ccc1S(=O)(=O)NCC(N)=O [Example 95, 2-((4-(2-((4,4-difluorocyclohexyl)methyl)-2H-tetrazol-5-yl)-2-methoxyphenyl)sulfonamido)acetamide] | 1 to 5
NC(=O)CNS(=O)(=O)c1ccc(-c2cn(CC3CCC(F)(F)CC3)nn2)cc1 [Example 69] | 1 to 5
O=S(=O)(NCCO)c1ccc(-c2nnn(Cc3ccncc3)n2)cc1 [Example 33] | < 0.1
COc1cc(-c2nnn(Cc3ccc(F)cc3)n2)ccc1S(=O)(=O)NCCO [Example 47, 4-(2-(4-fluorobenzyl)-2H-tetrazol-5-yl)-N-(2-hydroxyethyl)-2-methoxybenzenesulfonamide] | < 0.1
O=S(=O)(NCCO)c1ccc(-c2nnn(Cc3ccc(C(F)(F)F)cc3)n2)cc1 [Example 98] | 5 to 10
O=S(=O)(NCCO)c1ccc(-c2nnn(CC3CCCCC3)n2)cc1F [Example 79, 4-(2-(cyclohexylmethyl)-2H-tetrazol-5-yl)-2-fluoro-N-(2-hydroxyethyl)benzenesulfonamide] | < 0.1
N#CCNS(=O)(=O)c1ccc(-c2nnn(CC3CCOCC3)n2)cc1 [Example 89, N-(cyanomethyl)-4-(2-((tetrahydro-2H-pyran-4-yl)methyl)-2H-tetrazol-5-yl)benzenesulfonamide] | < 0.1
N#CCNS(=O)(=O)c1ccc(-c2nnn(Cc3ccncn3)n2)cc1 [Example 58] | < 0.1
O=S(=O)(NCCO)c1ccc(-c2nnn(Cc3cccnc3)n2)cc1 [Example 102, N-(2-hydroxyethyl)-4-(2-(pyridin-3-ylmethyl)-2H-tetrazol-5-yl)benzenesulfonamide] | < 0.1
O=S(=O)(NCCO)c1ccc(-c2nnn(Cc3ccncn3)n2)cc1 [Example 2, N-(2-hydroxyethyl)-4-(2-(pyrimidin-4-ylmethyl)-2H-tetrazol-5-yl)benzenesulfonamide] | 1 to 5
Cc1cc(Cn2nnc(-c3ccc(S(=O)(=O)NCCO)cc3)n2)ccn1 [Example 34] | 1 to 5
CCNS(=O)(=O)c1ccc(-c2nnn(Cc3ccncc3)n2)cc1 [Example 5, N-ethyl-4-(2-(pyridin-4-ylmethyl)-2H-tetrazol-5-yl)benzenesulfonamide] | 10 to 25
C[C@@H](O)CNS(=O)(=O)c1ccc(-c2nnn(Cc3ccc(F)cc3)n2)cc1 [Example 24] | < 0.1
Cc1cnc(Cn2nnc(-c3ccc(S(=O)(=O)NCC#N)cc3)n2)cn1 [Example 91, N-(cyanomethyl)-4-(2-((5-methylpyrazin-2-yl)methyl)-2H-tetrazol-5-yl)benzenesulfonamide] | < 0.1
O=S(=O)(NCCO)c1ccc(-c2nnn(Cc3ncc(F)cc3F)n2)cc1 [Example 21] | 1 to 5
O=S(=O)(NCCO)c1ccc(-c2cn(Cc3ccc(F)cn3)nn2)cc1 [Example 62, (4-(1-((5-fluoropyridin-2-yl)methyl)-1H-1,2,3-triazol-4-yl)-N-(2-hydroxyethyl)benzenesulfonamide)] | 1 to 5
O=S(=O)(NCCO)c1ccc(-c2nnn(CC3CCOCC3)n2)cc1 [Example 105, N-(2-hydroxyethyl)-4-(2-((tetrahydro-2H-pyran-4-yl)methyl)-2H-tetrazol-5-yl)benzenesulfonamide] | 1 to 5
C[C@@H](O)CNS(=O)(=O)c1ccc(-c2nnn(Cc3ccc(F)cn3)n2)cc1 [Example 25] | < 0.1
O=S(=O)(NCCO)c1ccc(-c2nnn(CC3CCCCC3)n2)cc1 [Example 100, 4-(2-(cyclohexylmethyl)-2H-tetrazol-5-yl)-N-(2-hydroxyethyl)benzenesulfonamide] | < 0.1
NC(=O)CNS(=O)(=O)c1ccc(-c2nnn(Cc3ccc(F)cn3)n2)cc1 [Example 38] | < 0.1
COc1ccc(Cn2nnc(-c3ccc(S(=O)(=O)NCCO)cc3)n2)cc1F [Example 30] | < 0.1
COC(=O)CNS(=O)(=O)c1ccc(-c2nnn(Cc3ccncc3)n2)cc1 [Example 44] | 5 to 10
O=S(=O)(NCCO)c1ccc(-c2nnn(Cc3ccc(F)cn3)n2)c(Cl)c1 [Example 81, 3-chloro-4-(2-((5-fluoropyridin-2-yl)methyl)-2H-tetrazol-5-yl)-N-(2-hydroxyethyl)benzenesulfonamide] | < 0.1
CCOc1ccc(Cn2nnc(-c3ccc(S(=O)(=O)NCCO)cc3)n2)cc1 [Example 99] | < 0.1
COc1cc(-c2nnn(Cc3ccc(F)cn3)n2)ccc1S(=O)(=O)NCCO [Example 50, 4-(2-((5-fluoropyridin-2-yl)methyl)-2H-tetrazol-5-yl)-N-(2-hydroxyethyl)-2-methoxybenzenesulfonamide] | 1 to 5
O=S(=O)(NCCO)c1ccc(-c2cn(Cc3ccncc3)nn2)cc1 [Example 65] | < 0.1
O=S(=O)(NCC(O)CO)c1ccc(-c2nnn(Cc3ccc(F)cc3)n2)cc1 (stereo not shown) [Example 17] | 5 to 10
Cc1cc(S(=O)(=O)NCCO)ccc1-c1nnn(CC2CCCCO2)n1 (single isomer, unassigned) [Example 74 Isomer 1, N-(2-hydroxyethyl)-3-methyl-4-(2-((tetrahydro-2H-pyran-2-yl)methyl)-2H-tetrazol-5-yl)benzenesulfonamide] | 5 to 10
Cc1cc(S(=O)(=O)NCCO)ccc1-c1nnn(Cc2ccc(F)cn2)n1 [Example 73, 4-(2-((5-fluoropyridin-2-yl)methyl)-2H-tetrazol-5-yl)-N-(2-hydroxyethyl)-3-methylbenzenesulfonamide] | < 0.1

same assay, conditions: M. tuberculosis H37Rv whole cell assay, value from repeated testing of the compound, read-out: MIC

Compound | MIC [µM]
C[C@@H](O)CNS(=O)(=O)c1ccc(-c2nnn(Cc3ccc(F)cn3)n2)cc1 [Example 25] | 0.6 (≈ 0.235 µg/mL)
COc1cc(-c2nnn(C(C)c3ccc(F)cc3)n2)ccc1S(=O)(=O)NCC(N)=O (single isomer, unassigned) [Example 115 Isomer 2, 2-(4-(2-(1-(4-fluorophenyl)ethyl)-2H-tetrazol-5-yl)-2-methoxyphenylsulfonamido)acetamide] | 0.45 to 1.25 (≈ 0.196 to 0.543 µg/mL)
